Measurements reported in US11149046B2, “Antibacterial sideromycins” (Hsiri Therapeutics, Inc., priority 2014, dated 2021).
In brackets after ≈: the same amount, converted by molar mass. Entries after “also recorded” stand apart in the source; their conditions may differ. Where two headings read alike, the source gives them in different places. One block for each compound: values may come before it.

Legend:
P. aeruginosa KW799/wt = assay: MIC determination; type: cell-based, Pseudomonas aeruginosa
From the text: (§1) Table 3 that was included in the first Example 4 section provides antibacterial data for the first synthetic sideromycins we prepared and studied. The second Example 4 section elaborated and expanded on that data with inclusion of representative antibacterial data in the text and associated pictures of Petri dish assays. MIC (minimum inhibition concentration) is given in μM and AD (agar diffusion zones of inhibition are given in mm from Kirby-Bauer Petri dish growth inhibition studies).

Pa6 = assay: MIC determination; type: cell-based, Pseudomonas aeruginosa; conditions: read-out: MIC
From the text: (§2) MIC (minimum inhibition concentration) is given in μM and AD (agar diffusion zones of inhibition are given in mm from Kirby-Bauer Petri dish growth inhibition studies).

[1] = system: Pa-Da-1304 CF patient isolate; assay: MIC determination; type: cell-based, Pseudomonas aeruginosa
From the text: as §2
We obtained a clinical isolate of Pseudomonas from a cystic fibrosis patient.

[2] = system: Pseudomonas aeruginosa 01 (Pa01); assay: MIC determination; type: cell-based
From the text: as §1

Stability assay in media = type: physicochemical
From the text: The initial antibacterial assay shown in Table 6 indicated activity against select strains of Pseudomonas and/or Acinetobacter. However, the reduction of activity at higher concentrations but excellent activity at lower, drug like concentrations, raised the concern that either the conjugates were unstable or some of the siderophore component remained in the final conjugate and at higher concentrations, the siderophore growth promotion would compete for the sideromycin growth inhibition. The possible instability was considered to be due to the presence of the short succinate linker that upon bacterial uptake and iron removal would promote intramolecular release of the antibiotic component and regeneration of the siderophore with subsequent growth promotion effects. […] Meanwhile, the assays were repeated with intentional addition (titration with) of the siderophore component itself to the sideromycins. […] Therefore, each of these mixed ligand sideromycins has been resynthesized and rigorously purified. […] MIC antibacterial assays are being repeated with the newly prepared samples. […] Thus, the mixed ligand system has the potential to be a very potent and selective anti-Acinetobacter sideromycin.

[3] = system: strains of Pseudomonas and Acinetobacter; assay: Antibacterial activity, general statements; type: cell-based; conditions: general statements of the text
Protocol: Antibiotic activity was determined using agar diffusion assays against representative Gram-negative bacteria, including Pseudomonas aeruginosa (Pa6), and several multidrug resistant forms of Acinetobacter baumannii. Representative results are shown in Table 1 and a corresponding picture of an actual petri dish showing the agar diffusion results (FIG. 4). […].

Cytotoxicity assay [4] = conditions: human, PC3 cells
Cytotoxicity assay [5] = conditions: human, MCF7 cells
Cytotoxicity assay [6] = conditions: human, HeLa cells
Pa4 = assay: MIC determination; type: cell-based, Pseudomonas aeruginosa
From the text: as §1

A. baumannii ATCC 17961 = assay: MIC determination; type: cell-based, Acinetobacter baumannii; conditions: read-out: MIC
From the text: as §1

[7] = system: P. aeruginosa KW799/61 (permeability mutant); assay: microbe, parasite or virus in culture; type: cell-based, Pseudomonas aeruginosa; conditions: Table 5
From the text: as §2

[8] = system: Pseudomonas aeruginosa KW799/wt; assay: Agar diffusion (Kirby-Bauer) assay; type: cell-based; conditions: wild type Pseudomonas; FIG. 8, 9, 12
From the text: as §1

[9] = system: Pseudomonas aeruginosa KW799/61; type: cell-based; conditions: outer membrane permeable mutant; FIG. 9 center panel
From the text: as §2

[10] = system: Acinetobacter baumannii ATCC 17961; assay: Agar diffusion (Kirby-Bauer) assay, with and without hydrogel; type: cell-based; conditions: Acinetobacter; FIG. 8, 9, 10
From the text: as §1
We investigated whether the sideromycin absorbed in the gel be able to diffuse out of the gel and into the agar to effect antibacterial growth. As a control, the sideromycin alone, without gel, was added in a separate 9 mm well, as usual.
The second question was whether the sideromycin continue to be released and be able to effect bacterial growth inhibition over extended periods. Thus, additional identical agar plates were prepared and stored at 4° C. for 24, 48 and 72 hours to allow diffusion of the sideromycin (control and gel forms) into the agar before allowing the bacteria to grow in an incubator. Then after each time period, the Petri dishes were incubated at 37° C. for 20 hours to promote bacteria growth in the agar. […] The study has been extended to as long as 168 hours (one week) with retention of antibiotic effectiveness.

Acinetobacter = assay: Murine Survival Experiment with Acinetobacter; type: in vivo; conditions: 50 mg/kg IV at +30 min and +4 hr
Protocol: In vivo data for murine survival with Acinetobacter is shown in Table 9 below and graphically in FIG. 14. In the experiments, 10^8 Acinetobacter was administered IP at time 0 on Day 1, and antibiotic was administered twice IV at +30 min and +4 hr

A. baumannii BAA1710 = assay: Antibacterial activity of MG-1-189 and sulbactam; conditions: single agent
A. baumannii BAA1793 = assay: Antibacterial activity of MG-1-189 and sulbactam; conditions: single agent
A. baumannii BAA1797 = assay: Antibacterial activity of MG-1-189 and sulbactam; conditions: single agent
A. baumannii BAA1800 = assay: Antibacterial activity of MG-1-189 and sulbactam; conditions: single agent

MIC (P. aeruginosa KW799/wt): 0.14 to 0.2 µM | MIC (P. aeruginosa KW799/wt; Pseudomonas aeruginosa, KW799/WT, Table 6, read-out: MIC): 0.14 to 0.2 µM (≈ 0.176 to 0.252 µg/mL) | MIC (P. aeruginosa KW799/wt; listed as MG-1-239, read-out: MIC): 0.05 µM (≈ 0.063 µg/mL) | MIC (Pa6; Pseudomonas aeruginosa, Table 6): > 50 µM | MIC ([1]; Pseudomonas aeruginosa, clinical isolate from a cystic fibrosis patient): > 50 µM | MIC [2]: 0.39 to 0.55 µM | MIC ([2]; Pseudomonas aeruginosa, Table 6, read-out: MIC): 0.39 to 0.55 µM (≈ 0.491 to 0.693 µg/mL) | MIC ([2]; Pseudomonas aeruginosa, read-out: MIC): 0.2 µM (≈ 0.252 µg/mL) | stability in media (in words) (Stability assay in media; incubated in media under conditions that mimic the antibacterial assays, LC/MS): expected loss of acetyl groups
Structure (SMILES): CC(=O)Oc1cccc(C(=O)NCCCCN(CCCNC(=O)c2cccc(OC(C)=O)c2OC(C)=O)C(=O)CCC(=O)NCCCCCN(OC(C)=O)C(=O)CCC(=O)N[C@@H](C(=O)N[C@@H]2C(=O)N3C2SC(C)(C)[C@@H]3C(=O)O)c2ccccc2)c1OC(C)=O (some centres unmarked) [MG-1-121]
antibacterial activity (in words) [3]: broad spectrum activity | IC50 (Cytotoxicity assay [4]): > 20 µM | IC50 (Cytotoxicity assay [5]): > 20 µM | IC50 (Cytotoxicity assay [6]): > 20 µM

MIC (P. aeruginosa KW799/wt; read-out: MIC): 0.2 µM (≈ 0.213 µg/mL) | MIC (Pa4): > 50 µM | MIC (Pa6; beta-lactamase producer strain): > 50 µM | MIC ([1]; clinical isolate from a cystic fibrosis patient): > 50 µM | MIC (A. baumannii ATCC 17961): 0.025 µM (≈ 0.0266 µg/mL) | stability in media (in words) (Stability assay in media): showed the desired stability | IC50 (PC3): 15 µM | IC50 (MCF7): 11 µM | IC50 (Hela): > 20 µM
Structure (SMILES): O=C(CCC(=O)N(CCCCNC(=O)c1cccc(O)c1O)CCCNC(=O)c1cccc(O)c1O)NCCCCCN(O)C(=O)CCCC(=O)NC(C(=O)NC1C(=O)N2C(C(=O)O)=C(Cl)CCC12)c1ccccc1 (centres unmarked) [MG-1-227]

Structure (SMILES): N[C@@H](C(=O)N[C@@H]1C(=O)N2C(C(=O)O)=C(Cl)CC[C@H]12)c1ccccc1 [loracarbef, reference compound]
MIC (P. aeruginosa KW799/wt; Table 5, read-out: MIC): >200 µM | MIC (P. aeruginosa KW799/wt; Table 7, read-out: MIC): >200 µM | MIC (Pa4; Table 5): >200 µM | MIC [7]: 50 µM (≈ 17.5 µg/mL) | MIC (Pa6; Table 5): >200 µM | MIC ([1]; Table 5): >200 µM | susceptibility of the clinical isolate (in words) ([1]; preliminary tests): resistant | MIC (A. baumannii ATCC 17961; Table 5, head prints A. baumannii only): >200 µM | MIC (A. baumannii ATCC 17961; Table 7): >200 µM | MIC ([2]; Table 5, read-out: MIC): >200 µM | MIC ([2]; Table 7, read-out: MIC): >200 µM | zones of inhibition (in words) [8]: inactive | zones of inhibition (in words) [9]: very small zone of inhibition | zones of inhibition (in words) [10]: inactive; also recorded: no inhibition | murine survival (surviving mice) (Acinetobacter; D 1, 10^8 Acinetobacter IP): 6 | murine survival (surviving mice) (Acinetobacter; D 2): 2 | murine survival (surviving mice) (Acinetobacter; D 3): 2 | murine survival (surviving mice) (Acinetobacter; D 4): 2 | murine survival (surviving mice) (Acinetobacter; D 5): 2 | murine survival (surviving mice) (Acinetobacter; D 6): 2 | murine survival (surviving mice) (Acinetobacter; D 7): 2 | Antibacterial activity (MIC) (A. baumannii BAA1710): >25 µM | Antibacterial activity (MIC) (A. baumannii BAA1793): >25 µM | Antibacterial activity (MIC) (A. baumannii BAA1797): >25 µM | Antibacterial activity (MIC) (A. baumannii BAA1800): >25 µM
